According to BigSolDB 2.1:

CC[C@H](C)C(=O)O[C@H]1C[C@H](O)C=C2C=C[C@H](C)[C@H](CC[C@@H](O)C[C@@H](O)CC(=O)[O-])[C@H]21.[Na+]
Conditions | solubility (mole fraction)
in ethanol, 278 K | 0.0031
in ethanol, 283 K | 0.00325
in ethanol, 288 K | 0.00346
in ethanol, 293 K | 0.00366
in ethanol, 298 K | 0.00406
in ethanol, 303 K | 0.00429
in ethanol, 318 K | 0.00569
in ethanol, 323 K | 0.00692
in ethanol, 328 K | 0.00793
in ethanol, 333 K | 0.00942
in isopropanol, 278 K | 0.000605
in isopropanol, 283 K | 0.000684
in isopropanol, 288 K | 0.000753
in isopropanol, 293 K | 0.000818
in isopropanol, 298 K | 0.000903
in isopropanol, 303 K | 0.00103
in isopropanol, 308 K | 0.0011
in isopropanol, 318 K | 0.00141
in isopropanol, 322.9 K | 0.00164
in isopropanol, 327.9 K | 0.0019
in methanol, 277.8 K | 0.0225
in methanol, 283 K | 0.0245
in methanol, 287.9 K | 0.027
in methanol, 293 K | 0.0301
in methanol, 297.8 K | 0.0326
in methanol, 302.9 K | 0.0373
in methanol, 308 K | 0.0418
in methanol, 313 K | 0.0492
in methanol, 318 K | 0.0588
in methanol, 324 K | 0.0687
in n-butanol, 278.1 K | 0.00108
in n-butanol, 283 K | 0.00118
in n-butanol, 288 K | 0.00127
in n-butanol, 293 K | 0.00144
in n-butanol, 298 K | 0.00159
in n-butanol, 303 K | 0.00178
in n-butanol, 308 K | 0.00223
in n-butanol, 313 K | 0.0029
in n-butanol, 318.2 K | 0.00345
in n-butanol, 323 K | 0.00408
in n-butanol, 328 K | 0.00493
in n-propanol, 278 K | 0.00208
in n-propanol, 283 K | 0.00216
in n-propanol, 288 K | 0.00219
in n-propanol, 293 K | 0.00227
in n-propanol, 298 K | 0.00238
in n-propanol, 308 K | 0.00343
in n-propanol, 313 K | 0.00449
in n-propanol, 318 K | 0.0062
in n-propanol, 328 K | 0.0122
in n-propanol, 333 K | 0.0158
in water, 278.4 K | 0.00911
in water, 283 K | 0.0119
in water, 288 K | 0.0162
in water, 293 K | 0.0216
in water, 298 K | 0.0285
in water, 303 K | 0.0343
in water, 313 K | 0.0477
in water, 318 K | 0.0553
in water, 323 K | 0.0642
in water, 328 K | 0.0723
in water, 333 K | 0.0841
